Measurements: patent publication US12440469B2, “P-gp inducers as protectors against chemotherapy-induced side effects, such as peripheral neuropathy (CIPN) and hair loss” (Syddansk Universitet, priority 2019, dated 2025)

Key:
[1] = test system: iPSC-derived sensory neurons; assay: Vincristine neurotoxicity in iPSC-derived sensory neurons with or without MK-571 or rifampicin; assay type: cell-based, human
From the text: Sensory neurons were generated from human induced pluripotent stem cells (iPSCs) by implementing the well-established protocol by Chambers et. al. (Nat Biotech 2012). The neuronal differentiation was initiated when iPSCs achieved 70-80% confluency using KSR medium, which contained 82% KnockOut DMEM (Gibco, 10829-018) and 15% KnockOut Serum Replacement (KSR, ThermoFisher, 10828-028), 1% GlutaMAX-I (Gibco, 35050-038), 1% mini-mum essential medium non-essential amino acids (MEM-NEAA, Gibco, 11140-035), 1% P/S and 0.055 mM β-mercaptoethanol (Gibco, 21985023).
On days 0-5, SMAD signaling was inhibited by adding 0.1 μM LDN-193189 (Selleck, S7507) and 10 μM SB-431542 (Selleck, S1067) to the medium. Medium was changed daily, and N2 medium was added with 25% increments every other day starting on day 4 (100% N2 on day 10). N2 medium consists of 97% Neurobasal medium (Gibco, 21103-049) with 1% N2 Supplement (Gibco, 17502-048), 1% B27 Supplement (Gibco, 17504-044) and 1% P/S. On days 2-10, nociceptor induction was initiated with the addition of the three inhibitors, 3 μM CHIR99021 (Selleck, S1263), 10 μM SU5402 (Selleck, S7667) and 10 μM DAPT (Selleck, S2215).
For long-term cultivation starting on day 12, cells were washed with PBS÷ and incubated with Accutase for 30 min to obtain a single-cell suspension. After incubation, the culture plates were gently rocked and cellular clumps were mechanically dissociated by pipetting up and down. The cells were filtered through a 40 μm nylon cell strainer (Corning, 431750) and centrifuged (800 rpm, 5 min, RT). Following resuspension of the pellet, iPSC-SNs were seeded as single cells on PLO/LAM/FN-coated culture plates at a density of 150,000 viable cells/cm^2. […]
Cells were treated with vincristine from 0.001-1 μM for 24 hours and immunolabeled with peripherin antibody. Quantification of network was done using ImageJ and MIPAR. […]

P-gp = target: T1, P-gp (Homo sapiens, UniProt P08183); assay: Intracellular paclitaxel concentration (LC-MS/MS) in differentiated SH-SY5Y cells under P-gp inhibition; assay type: cell-based; conditions: 10 μM paclitaxel, 1 hour, P-gp inhibition by 4 μM valspodar, p<0.001
T1 construct: indicated expression of the efflux transporters P-gp and MRP1 in both SH-SY5Y cells and human dorsal root ganglion; endogenous in cells; host or cells: differentiated SH-SY5Y cells (neurons)
Method: LC-MS/MS method to determine intracellular paclitaxel concentrations Fully differentiated SH-SY5Y cells were exposed to 1-10 μM paclitaxel for 1 hour with and without 1 hour pre-incubation with efflux transporter inhibitors. After this, media was aspirated and cells were lysed using radio immunoprecipitation assay (RIPA) buffer with 4% protease inhibitor for 10 minutes on ice. Cells were collected using a cell scraper, vortexed and sonicated (1 sec×2), centrifuged and the supernatant was stored at −80° C. until LC-MS/MS analysis. […] The LC-MS/MS system consisted of an Ultimate 3000 UHPLC system connected to a TSQ Quantiva Triple Quadropole Mass Spectrometer with heated electrospray ionization (H-ESI) (Thermo Scientific, San Jose, CA). […] Paclitaxel was quantified at the transition from (m/z) 876.18-308.00, and with (m/z) 876.18-591.11 and (m/z) 876.19-531.11 as qualifier traces. […] The limit of detection (LOD) for the method was 1 ng/mL and limit of quantification (LOQ) was 10 ng/mL. Finally, paclitaxel concentrations were adjusted for protein concentration in each well as assessed using a Pierce BCA protein assay kit.
Cells were treated with paclitaxel with and without concomitant P-gp inhibition by valspodar and intracellular levels were measured 1 hour after treatment.

TRPV1 = TRPV1 expression in iPSC-derived sensory neurons (RT-qPCR); assay type: cell-based, human; conditions: paclitaxel, dose-dependent
Method: (§1) Induced pluripotent stem cells were differentiated to sensory neurons for 35-40 days as described above. Rifampicin was added 48 hours ahead of paclitaxel to increase expression of efflux transporters. Expression levels was determined using real-time qualitative polymerase chain reaction (RT-qPCR) for TRPV1 and ATF-3.

[2] = test system: sensory neurons derived from induced pluripotent stem cells; assay: Paclitaxel damage in iPSC-derived sensory neurons, peripherin immunolabelling; assay type: cell-based, human; conditions: paclitaxel 24 hours
Method: Cells were treated with paclitaxel for 24 hours and immunolabeled using an antibody for peripherin.
Cells were pretreated for 48 hours with 25 μM rifampicin prior to addition of paclitaxel treatment.

ATF-3 = ATF-3 expression in iPSC-derived sensory neurons (RT-qPCR); assay type: cell-based, human; conditions: paclitaxel, dose-dependent
Method: as §1

SH-SY5Y-derived neurons [3] = test system: SH-SY5Y-derived neurons
Method: (§2) SH-SY5Y cells (94030304, Sigma-Aldrich) were kept in DMEM/F:12 (11320074, ThermoFisher) with 15% heat-inactivated fetal bovine serum (hiFBS, F9665 Sigma-Aldrich), 1% penicillin/streptomycin (p/s) and 2 mM glutamine. Cells were split 1:10-1:20 using 0.05% trypsin-EDTA (10779413, Fisher Scientific) at 70-80% confluence.
(§3) Paclitaxel (T7402, Sigma-Aldrich) was diluted serially in DMSO (D2650, Sigma-Aldrich) and these stock solutions diluted 1:500 to ensure 0.2% DMSO in all samples. […] Valspodar (SML0572, Sigma-Aldrich) were used at a final concentration of 4 μM. Antibody against TUBB3 (MA1-118, ThermoFisher Scientific) was used at 1:1000.
(§4) Briefly, SH-SY5Y cells below passage 15 were seeded at 5-6×10^3 cells/cm^2 in uncoated 6-well plates (day 0 (D0)) and left overnight in growth media. The next day (D1) differentiation was initiated using DMEM/F:12 media with 2.5% hiFBS, 1% p/s, 2 mM glutamine and 10 μM retinoic acid (RA, R2625 Sigma-Aldrich) and media was replaced at D3 and D5. On D7 cells were split 1:1 using 0.05% trypsin-EDTA to uncoated dishes and on D8 hiFBS content was reduced to 1%. On D10 the cells were split 1:1 to extracellular matrix-coated dishes (E0282, Sigma-Aldrich). On D11 media was replaced with the final differentiation media containing neurobasal media (21103049, ThermoFisher) with 1×B27 supplement (17504044, ThermoFisher), 20 mM KCl (10697623, Fisher Scientific), 1% p/s, 1× Glutamax, 50 ng/ml brain-derived neurotrophic factor (BDNF, CST-3897S, Peprotech), 2 mM dibutyryl cyclic AMP (db-cAMP, D0627 Sigma-Aldrich) and 10 μM RA. Media was replaced on D14 and D17 and cells were tested and confirmed as fully differentiated on D18 and used for downstream applications as outlined below.
(§5) Both differentiated and undifferentiated SH-SY5Y cells were fixed using 4% paraformaldehyde. Cells were permeabilized using 0.25% Triton X-100 and unspecific binding was blocked using bovine serum albumin (BSA). Primary antibodies were incubated overnight at 4° C. and secondary antibodies were incubated for one hour at room temperature. Nuclei were stained using 1.5 μM DAPI for 5 minutes. Imaging was performed using a Leica DMI4000B microscope. Neurite morphology was assessed using the ImageJ modules CellCounter and Simple Neurite Tracer. To determine number of neurites per cell, CellCounter was used to count the number of cells with 0, 1, 2 . . . n neurites. Neurite length was determined using Simple Neurite Tracer. For both endpoints, at least five images of each condition from three separate differentiations were used. ImageJ analysis was blinded to the person assessing length and number of neurites to ensure no bias. […]

[4] = test system: paclitaxel treated patients with breast or ovarian cancer; assay: Paclitaxel dose modification due to peripheral neuropathy in patients using P-gp inhibitors (logistic regression); assay type: in vivo, human; conditions: for Multivariate analysis Odds-ratio of paclitaxel dose modification due to peripheral neuropathy: adjusted for age, body surface, tumor type, cancer stage, treatment schedule and previous chemotherapy; for Univariate analysis Odds-ratio of paclitaxel dose modification due to peripheral neuropathy: concomitant use with paclitaxel, 503 patients database; for increased risk of dose modification due to peripheral neuropathy: paclitaxel-treated patients, text summary of the multivariate analysis
From the text: Data were log-transformed to ensure normality of data.
To assess if P-gp inhibition leads to increased risk of peripheral neuropathy we used a previously described database of 503 paclitaxel treated patients with breast or ovarian cancer (Sanchez-Barroso L et al. The Oncologist. 2018 Nov. 23). […] P-gp inhibitors were selected based on two literature reviews (see comments under table 1). From these reviews, we identified drugs listed as P-gp inhibitors (drugs classified as inhibitor in either review), and, within these, strong P-gp inhibitors (drugs classified as inhibitor in both reviews).
The association from univariate and multivariate analysis between paclitaxel dose modification due to peripheral neuropathy and concomitant P-gp inhibitor use is shown in Table 1.

SH-SY5Y-derived neurons [5] = assay: Neurite number and length in differentiated SH-SY5Y cells after paclitaxel with or without valspodar
Method: as §2, §3, §4, §5

[6] = vincristine 0.001-1 μM, 24 hours

T1 sequence (P08183 whole entry): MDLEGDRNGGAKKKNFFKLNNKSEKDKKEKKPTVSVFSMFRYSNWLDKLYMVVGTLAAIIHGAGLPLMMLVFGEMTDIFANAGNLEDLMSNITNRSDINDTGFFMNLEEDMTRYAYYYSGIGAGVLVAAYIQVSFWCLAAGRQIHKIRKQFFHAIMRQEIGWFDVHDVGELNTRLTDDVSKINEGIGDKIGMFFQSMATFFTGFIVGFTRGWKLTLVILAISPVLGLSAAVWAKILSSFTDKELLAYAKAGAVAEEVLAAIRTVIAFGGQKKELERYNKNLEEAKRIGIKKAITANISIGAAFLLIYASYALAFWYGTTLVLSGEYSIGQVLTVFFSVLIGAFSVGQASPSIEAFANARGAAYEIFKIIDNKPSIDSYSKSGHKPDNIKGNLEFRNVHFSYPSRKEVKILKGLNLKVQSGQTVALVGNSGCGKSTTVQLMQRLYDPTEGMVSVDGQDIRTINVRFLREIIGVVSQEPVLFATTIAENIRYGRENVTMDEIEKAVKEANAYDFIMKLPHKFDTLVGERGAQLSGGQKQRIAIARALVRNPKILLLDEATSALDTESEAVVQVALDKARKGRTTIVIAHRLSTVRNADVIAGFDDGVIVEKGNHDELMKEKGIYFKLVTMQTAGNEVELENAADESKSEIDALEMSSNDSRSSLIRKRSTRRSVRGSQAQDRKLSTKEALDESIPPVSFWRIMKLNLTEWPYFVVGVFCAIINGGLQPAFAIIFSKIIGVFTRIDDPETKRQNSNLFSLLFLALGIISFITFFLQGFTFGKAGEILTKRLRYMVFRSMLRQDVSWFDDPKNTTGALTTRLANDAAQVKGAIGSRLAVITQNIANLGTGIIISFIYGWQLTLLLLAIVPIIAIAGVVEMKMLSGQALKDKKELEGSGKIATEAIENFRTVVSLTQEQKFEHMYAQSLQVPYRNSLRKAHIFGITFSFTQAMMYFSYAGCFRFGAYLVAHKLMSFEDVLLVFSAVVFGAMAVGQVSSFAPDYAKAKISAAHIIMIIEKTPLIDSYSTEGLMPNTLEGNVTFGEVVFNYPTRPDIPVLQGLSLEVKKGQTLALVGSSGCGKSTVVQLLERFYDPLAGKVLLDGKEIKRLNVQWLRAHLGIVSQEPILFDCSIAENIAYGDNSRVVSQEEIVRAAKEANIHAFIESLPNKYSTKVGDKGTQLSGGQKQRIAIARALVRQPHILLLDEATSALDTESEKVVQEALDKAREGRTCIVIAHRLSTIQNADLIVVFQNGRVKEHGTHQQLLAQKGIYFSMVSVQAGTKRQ

Structure (SMILES): CC[C@]1(O)C[C@H]2CN(CCc3c([nH]c4ccccc34)[C@@](C(=O)OC)(c3cc4c(cc3OC)N(C=O)[C@H]3[C@@](O)(C(=O)OC)[C@H](OC(C)=O)[C@]5(CC)C=CCN6CC[C@]43[C@@H]65)C2)C1 [vincristine]
- neurite length [1, 6]: shortened in a dose-dependent manner
- number of neurites extending from a cluster of sensory neurons [1, 6]: dose-dependent decrease

Structure (SMILES): CN(C)C(=O)CCSC(SCCC(=O)O)c1cccc(/C=C/c2ccc3ccc(Cl)cc3n2)c1 (centres unmarked) [MK-571]
- effect of MRP1 inhibition on vincristine neurotoxicity ([1]; 4 μM MK-571 one hour ahead of vincristine, low vincristine concentrations): substantially increased neurotoxicity

Structure (SMILES): CC(=O)O[C@H]1C(=O)[C@@]2(C)[C@H]([C@H](OC(=O)c3ccccc3)[C@]3(O)C[C@H](OC(=O)[C@H](O)[C@@H](NC(=O)c4ccccc4)c4ccccc4)C(C)=C1C3(C)C)[C@]1(OC(C)=O)CO[C@@H]1C[C@@H]2O [Paclitaxel]
- increase in intracellular accumulation of paclitaxel on inhibition of P-gp (P-gp): > 3 fold
- TRPV1 expression (TRPV1): substantially increased expression
- damage to sensory neurons [2]: marked damage
- ATF-3 expression (ATF-3): substantially increased expression
- neurite length (SH-SY5Y-derived neurons [3]): significantly reduced
- number of neurites (SH-SY5Y-derived neurons [3]): significantly reduced

Structure (SMILES): CCC(C)(C)C(=O)O[C@H]1C[C@@H](C)C=C2C=C[C@H](C)[C@H](CC[C@@H]3C[C@@H](O)CC(=O)O3)[C@H]21 [Simvastatin]
- Multivariate analysis Odds-ratio of paclitaxel dose modification due to peripheral neuropathy [4]: 0.31
- Univariate analysis Odds-ratio of paclitaxel dose modification due to peripheral neuropathy [4]: 0.60
- increased risk of dose modification due to peripheral neuropathy [4]: not at increased risk

Structure (SMILES): CC(C)c1c(C(=O)Nc2ccccc2)c(-c2ccccc2)c(-c2ccc(F)cc2)n1CC[C@@H](O)C[C@@H](O)CC(=O)O [Atorvastatin]
- Multivariate analysis Odds-ratio of paclitaxel dose modification due to peripheral neuropathy [4]: 7.01
- Univariate analysis Odds-ratio of paclitaxel dose modification due to peripheral neuropathy [4]: 9.41
- increased risk of dose modification due to peripheral neuropathy [4]: 7.0 fold

Structure (SMILES): C/C=C/C[C@@H](C)C(=O)[C@H]1C(=O)N[C@@H](C(C)C)C(=O)N(C)CC(=O)N(C)[C@@H](CC(C)C)C(=O)N[C@@H](C(C)C)C(=O)N(C)[C@@H](CC(C)C)C(=O)N[C@@H](C)C(=O)N[C@H](C)C(=O)N(C)[C@@H](CC(C)C)C(=O)N(C)[C@@H](CC(C)C)C(=O)N(C)[C@@H](C(C)C)C(=O)N1C [valspodar]
- effect on neuronal morphology without paclitaxel present (SH-SY5Y-derived neurons [5]; 4 μM valspodar alone): did not affect
- effect on neuronal toxicity of paclitaxel (number and length of neurites) (SH-SY5Y-derived neurons [5]; 4 μM valspodar together with paclitaxel, 24 hours, ANOVA p<0.001): substantially exacerbated
